In patent US20240173432A1, “Compositions and Methods for Treatment of Myotonic Dystrophy Type 1 with CRISPR/SluCas9” (Vertex Pharmaceuticals Incorporated, priority 2021, published 2024):

What was measured:
[1] = test system: CUG foci in primary DM1 patient myoblasts; assay: Dual-cut screening: FISH staining of CUG RNA foci; type: cell-based, human; conditions: sgRNA pair, primary DM1 patient myoblasts; for % of CUG foci free nuclei (DNA-PKi): 3 μM DNA-PKi Compound 6 for 48 hours; for % of CUG foci free nuclei (Vehicle): vehicle (DMSO)
How it was run: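 SluCas9 RNPs (protein:sgRNA 1:3; 20 pmol SluCas9 + 60 pmol sgRNA per guide, paired 1:1) nucleofected into primary DM1 patient myoblasts, then DMSO or 3 μM DNA-PKi Compound 6 for 48 h. At 72 h post-nucleofection cells fixed, FISH-stained with Cy3-PNA(CAG)5 probe plus anti-MBNL1 and Hoechst; % CUG foci-free nuclei by high-content confocal imaging.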

[2] = test system: CTG repeat in the 3′ UTR of human DMPK gene; assay: Dual-cut screening: CTG repeat excision efficiency by loss-of-signal ddPCR; type: cell-based; conditions: sgRNA pair, primary DM1 patient myoblasts; for Excision efficiency (by ddPCR): 3 μM DNA-PKi Compound 6 for 48 hours; for Excision efficiency by ddPCR (Vehicle): vehicle (DMSO)
How it was run: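 Upstream and downstream SluCas9 RNPs (20 pmol protein, 60 pmol sgRNA each) mixed 1:1 and nucleofected into primary DM1 patient myoblasts, then treated 48 h with DMSO or 3 μM DNA-PKi Compound 6. Genomic DNA taken 72 h post-nucleofection; excision read as loss of target signal by ddPCR versus a DMPK exon 1 reference.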

| Substance | % of CUG foci free nuclei (DNA-PKi) [1] [%] | % of CUG foci free nuclei (Vehicle) [1] [%] | Excision efficiency (by ddPCR) [2] | Excision efficiency by ddPCR (Vehicle) [2] |
| --- | --- | --- | --- | --- |
| SluU06 + SluD34 (guide 1 TGTCTTCGACTCCGGGGCCCCG; guide 2 CGCGCCAGACGCTCCCCAGAGC; guide RNA; listed as DNA, chemistry not fully specified) | 90.66 | 78.56 | 67.57 | 51.37 |
| SluU06 + SluD14 (guide 1 TGTCTTCGACTCCGGGGCCCCG; guide 2 ATGGGCAAACTGCAGGCCTGGG; guide RNA; listed as DNA, chemistry not fully specified) | 83.37 | 66.72 | 65.02 | 48.08 |
| SluU64 + SluD68 (guide 1 GGGCTCGAAGGGTCCTTGTAGC; guide 2 CCTGTAGCCTGTCAGCGAGTCG; guide RNA; listed as DNA, chemistry not fully specified) | 89.56 | 74.94 | 72.9 | 46.16 |
| SluU10 + SluD32 (guide 1 CCCGTTGGAAGACTGAGTGCCC; guide 2 CTTGTGCATGACGCCCTGCTCT; guide RNA; listed as DNA, chemistry not fully specified) | 90.08 | 77.29 | 72.52 | 48.62 |
| SluU21 + SluD34 (guide 1 GCTCGGAGCGGTTGTGAACTGG; guide 2 CGCGCCAGACGCTCCCCAGAGC; guide RNA; listed as DNA, chemistry not fully specified) | 88.43 | 56.01 | 61.75 | 42.16 |
| SluU10 + SluD56 (guide 1 CCCGTTGGAAGACTGAGTGCCC; guide 2 CCAGCCGGCTCCGCCCGCTTCG; guide RNA; listed as DNA, chemistry not fully specified) | 83.68 | 49.83 | 54.92 | 33.89 |
| SluU06 + SluD68 (guide 1 TGTCTTCGACTCCGGGGCCCCG; guide 2 CCTGTAGCCTGTCAGCGAGTCG; guide RNA; listed as DNA, chemistry not fully specified) | 89.4 | 64.01 | 62.99 | 47.38 |
| SluU59 + SluD34 (guide 1 CGCGGCCGGCGAACGGGGCTCG; guide 2 CGCGCCAGACGCTCCCCAGAGC; guide RNA; listed as DNA, chemistry not fully specified) | 89.01 | 76.47 | 71.96 | 55.22 |
